These results are taken from patent US3944498A, “Germicidal detergent containing a thienyliodonium salt” (The Dow Chemical Company, priority 1973, dated 1976).

The nature of data set [1]: Range-finding median lethal dose (LD50) in mice. As to conditions: mouse, in vivo; single oral dose in corn oil, 14-day observation. On the procedure:
The range-finding oral median lethal dose (LD50) for iodonium and other antimicrobial compounds, including diphenyl- and thienyliodonium salts as well as several proprietary products was determined in mice. Compounds 1 through 11 of following Table 2 were fed to five groups of two mice each, the test compound being administered in suspension in corn oil as a single oral dose and the mortality experience of the mice was observed over a 14-day period. Data for compounds 12 through 15 were taken from U.S. Pat. No. 3,207,660, and for compounds 16 through 18 were taken from trade literature.

Data set [2] concerns A. aerogenes. The data set is described as follows: Agar plate kill test with Ivory soap, A. aerogenes. The data set is classed as cell-based. As to conditions: Ivory soap. On the procedure:
(§1) Phenyl-2-thienyliodonium chloride, 2,2'-bisthienyliodonium chloride, and, for comparative purposes, diphenyliodonium chloride are individually dispersed in Ivory soap to provide concentrates containing 1 part by weight of iodonium salt to 50 parts by weight of soap. The soap concentrates are serially dispersed and serially diluted with liquid nutrient agar at 42°C. to prepare culture media containing various concentrations of one of the iodonium salts. The culture media are uniformly inoculated with S. aureus and plated in petri dishes. The inoculation is carried out from broth cultures of the named organism containing about 5×10^8 organisms per milliliter in the proportion of one-tenth milliliter of bacterial culture per 20 milliliters of cultur medium containing each test compound. In a check operation, nutrient agar containing the same amount of Ivory soap is similarly inoculated with the same organism. After two days' incubation at 37°C., the plates are examined for microbial growth.
The procedure described above is repeated with varying concentrations of 4-chlorophenyl-2-thienyliodonium chloride, 3,4-dichlorophenyl-2-thienyliodonium chloride, and for comparative purposes bis(4-chlorophenyl)iodonium chloride, phenyl-4-chlorophenyliodonium chloride and bis(2,4-dichlorophenyl)iodoniumchloride in a series of tests wherein the culture media are inoculated individually with the organism A. aerogenes.
The procedure described above is once again repeated with each of 2,2'-bisthienyliodonium chloride, phenyl-2-thienyliodonium chloride, 4-bromophenyl-2-thienyliodonium chloride, bis(4-bromophenyl)iodonium chloride and bis(4-bromophenyl)iodonium bromide in a series of tests wherein the culture media are inoculated individually with the organism A. aerogenes.

The subject of data set [3] is S. typhosa. The data set is described as follows: Agar plate kill test with Ivory soap, S. typhosa. It is filed as cell-based. On the procedure:
as §1
The procedure described above is again repeated in a series of tests wherein the culture media are inoculated individually with the organism S. typhosa and wherein the culture media contain varying concentrations of one of the iodonium salts, as set forth in following Table II.

For data set [4], the system named is S. aureus. In words: Agar dilution MIC in presence of Ivory soap, S. aureus. The data set is classed as cell-based. The settings on record: Staphylococcus aureus; read-out: Minimum growth inhibitory concentration, S. aureus. On the procedure: (§2) The growth-inhibitory activity of the below-indicated compounds against some microorganisms most relevant to the human skin was determined by standard agar dilution techniques to provide the data given in following Table 1.
(§3) In Table 1, the first column gives the chemical structures of the test compounds, while the additional columns give the names of the test organisms and the minimum inhibitory concentration in parts per million (p.p.m.) of the compounds listed for 100% growth inhibition against the particular microorganisms indicated. […] For each p.p.m. of test compound, 50 p.p.m. of Ivory soap was also present in the culture medium for part A of Table 1, while in part B of Table 1, the culture medium was free of any additive other than the test compound. The data for compounds 13 through 16 of part B of Table 1 were taken from Cannon U.S. Pat. No. 3,207,660 while those for compounds 17 and 18 were taken from trade literature.

In data set [5] the test system is P. aeruginosa. In words: Agar dilution MIC in presence of Ivory soap, P. aeruginosa. It is filed as cell-based. As to conditions: Pseudomonas aeruginosa; read-out: Minimum growth inhibitory concentration, P. aeruginosa. On the procedure: as §2, §3
For data set [6], the system named is S. typhosa. In words: Agar dilution MIC in presence of Ivory soap, S. typhosa. The data set is classed as cell-based. The settings on record: read-out: Minimum growth inhibitory concentration, S. typhosa. On the procedure: as §2, §3
On the technique in general: Agar dilution tests growth on a series of plates holding different concentrations.

Data set [7] deals with mice. The settings on record: cited from earlier work; for Oral LD50 (mice): 12-15 from U.S. Pat. No. 3,207,660, 17, 18 from trade literature.
Data set [8] relates to S. aureus. The settings on record: absence of soap; 13-16 from Cannon U.S. Pat. No. 3,207,660, 17-18 from trade literature; cited from earlier work.
Data set [9] has as its system P. aeruginosa. As to conditions: absence of soap; 13-16 from Cannon U.S. Pat. No. 3,207,660, 17-18 from trade literature; cited from earlier work.
Data set [10] relates to S. aureus. In words: Nutrient agar growth test, S. aureus (Example 3). It is filed as cell-based. As to conditions: 0.001 percent by weight, 2 days, 35°C. The text has this:
(§4) The 4-chlorophenyl-2-thienyliodonium chloride, trifluoroacetate and trichloroacetate salts are dispersed in melted nutrient agar to produce culture media containing 0.001 percent by weight of one of the salt compounds. Such melted media are then poured into petri dishes and the solidified surface in each dish inoculated with a 24-hour broth culture, one of the organisms S. aureus and S. typhosa. In a check operation, petri dishes containing unmodified nutrient agar are each individually inoculated in the same manner with the named organisms. After two days' incubation at 35°C. the agar surface in each dish is examined for microbial growth. […] At the time of these observations the check dishes are found to support a heavy growth of the two named organisms.

Data set [11] relates to S. typhosa. In words: Nutrient agar growth test, S. typhosa (Example 3). It is filed as cell-based. The settings on record: 0.001 percent by weight, 2 days, 35°C.
Source text: as §4

Setting [12] is: Klebsiella aerogenes, 48 h, 10 p.p.m., read-out: Percent Kill of A. aerogenes.
Setting [13] is: 48 h, read-out: Percent Kill of S. Typhosa.

Take `c1ccc(Oc2ccc([I+]c3cccs3)cc2)cc1` [Compound 10 (Table 2)]: the LD50 in [1] is 3000 mg/kg.
Turning to `Clc1ccc([I+]c2ccccc2)cc1.[Cl-]` [phenyl-4-chlorophenyliodonium chloride, reference compound], the killing at 10 ppm in data set [2] (setting [12]) and in data set [3] (setting [13]) was 0% each time. The molecule also had an LD50 in data set [1] of 68 mg/kg.
`CCOc1ccc([I+]c2cccs2)cc1` [Compound 10 (Table 1)]: the MIC in data set [4] came to 5 µg/mL; in data set [5], 50 µg/mL; in data set [6], 5 µg/mL.
With `c1ccc2c(c1)[I+]c1ccccc1-2` [Compound 12 (Table 2)], the “Oral LD50 (mice)” value in [7] is on record as 12.5 mg/kg.
As for `Clc1ccc2c(c1)[I+]c1cc(Cl)ccc1-2` [Compound 16 (Table 1)], the “Minimum growth inhibitory concentration, S. aureus” value in data set [8] is 1.56 ppm. Besides, the “Minimum growth inhibitory concentration, P. aeruginosa” value in [9] is 6.25 ppm.
For the molecule `c1ccc([I+]c2ccccc2)cc1` [Compound 1 (Table 1)], the MIC in data set [4], in data set [5] and in data set [6] was over 500 µg/mL in each case.
As for `Clc1ccc([I+]c2ccc(Cl)cc2)cc1` [bis(4-chlorophenyl)iodonium chloride, reference compound], the killing at 100 ppm in [2] (Klebsiella aerogenes, 48 h, 100 p.p.m., read-out: Percent Kill of A. aerogenes) is 0%.
The molecule `CCc1ccc([I+]c2cccs2)cc1` [Compound 8 (Table 2)] had an LD50 in [1] of 1500 mg/kg.
In the case of `Clc1ccc2c(c1)[I+]c1cc(Cl)ccc1-2` [Compound 15 (Table 2)], the “Oral LD50 (mice)” value in data set [7] was 21.32 ± 3.2 mg/kg.
`Clc1ccc([I+]c2ccc(Cl)c(Cl)c2)cc1Cl` [Compound 7 (Table 1)]: the MIC was 5 µg/mL in data set [4], over 500 µg/mL in data set [5] and over 10 µg/mL in [6].
With `Clc1ccc([I+]c2cccs2)cc1.O=C([O-])C(F)(F)F` [4-Chlorophenyl-2-thienyliodonium trifluoroacetate], the “microbial growth on agar surface” value in [10] and in data set [11] was “free of microbial growth” in each case.
Turning to `CCOc1ccc([I+]c2ccccc2)cc1` [Compound 9 (Table 1)], the MIC in data set [4], in data set [5] and in data set [6] was over 500 µg/mL in each case.
With `Clc1ccc([I+]c2cccs2)cc1Cl` [Compound 6 (Table 2)], in data set [1], the LD50 stood at 2000 mg/kg.
For `Clc1ccc([I+]c2cccs2)cc1Cl` [3,4-dichlorophenyl-2-thienyliodonium chloride], the killing at 1 ppm in [2] (Klebsiella aerogenes, 48 h, 1 p.p.m., read-out: Percent Kill of A. aerogenes) stood at 100%; in data set [3] (setting [13]) it was 100%.
Consider `Brc1ccc([I+]c2ccc(Br)cc2)cc1.[Br-]` [bis(4-bromophenyl)iodonium bromide, reference compound], for which the “Percent Kill of A. aerogenes” value in data set [2] (10 p.p.m.) is given as 0%. The “Percent Kill of S. Typhosa” value in data set [3] (10 p.p.m., Ivory soap) came to 0%.
With `Brc1ccc([I+]c2cccs2)cc1` [4-bromophenyl-2-thienyliodonium chloride], the killing at 5 ppm in data set [2] (Klebsiella aerogenes, 48 h, 5 p.p.m., read-out: Percent Kill of A. aerogenes) is 100%; in [3] (setting [13]) it was 100%.
For the molecule `Oc1c(Cl)cc(Cl)c(Cl)c1Cc1c(O)c(Cl)cc(Cl)c1Cl` [hexachlorophene], the “Oral LD50 (mice)” value in data set [7] is 161 mg/kg.
In the case of `Clc1ccc([I+]c2cccs2)cc1` [Compound 5 (Table 2)], the LD50 in [1] is over 4000 mg/kg.
The molecule `c1ccc(-c2ccc([I+]c3cccs3)cc2)cc1` [Compound 11 (Table 2)] returned an LD50 in data set [1] of 4000 mg/kg.
As for `Brc1ccc([I+]c2ccc(Br)cc2)cc1` [bis(4-bromophenyl)iodonium chloride, reference compound], the killing at 10 ppm in data set [2] (setting [12]) and in data set [3] (setting [13]) was 0% throughout.
Regarding `Cc1ccc([I+]c2cccs2)cc1` [Compound 7 (Table 2)], the median lethal dose (LD50) in data set [1] turned out to be 750 mg/kg.
`c1ccc([I+]c2cccs2)cc1` [Compound 2 (Table 1)]: the MIC in [4], in data set [5] and in data set [6] was 5 µg/mL each time.
Take `c1ccc([I+]c2cccs2)cc1` [Compound 3 (Table 2)]: the LD50 in [1] is 2000 mg/kg.
For `c1ccc2c(c1)[I+]c1ccccc1-2` [Compound 13 (Table 1)], the “Minimum growth inhibitory concentration, S. aureus” value in [8] is recorded as 3.13 ppm. In addition, the “Minimum growth inhibitory concentration, P. aeruginosa” value in data set [9] was 3.13 ppm.
For `c1csc([I+]c2cccs2)c1` [Compound 4 (Table 2)], the LD50 in data set [1] was 500 mg/kg.
Turning to `Clc1ccc([I+]c2cccs2)cc1` [4-chlorophenyl-2-thienyliodonium trichloroacetate], the “microbial growth on agar surface” value in [10] and in [11] was “free of microbial growth” in each case.
`Clc1ccc([I+]c2ccc(Cl)cc2)cc1` [Compound 5 (Table 1)]: the figures for the MIC in data set [4], in [5] and in [6] were 10 µg/mL, over 100 µg/mL and 10 µg/mL, respectively.
With `Clc1ccc([I+]c2cccs2)cc1Cl` [Compound 8 (Table 1)], the MIC in data set [4], in data set [5] and in data set [6] was 1 µg/mL each time.
On to `C[CH2][Hg][S]c1ccccc1C(=O)[O-].[Na+]` [Merthiolate], for which, in [7] (S.C., trade literature), the “LD50 (mice), subcutaneous” value was 66 mg/kg.
Take `Clc1cccc2c1-c1ccccc1[I+]2` [Compound 15 (Table 1)]: the “Minimum growth inhibitory concentration, S. aureus” value in data set [8] was 1.56 ppm. For the same molecule, the “Minimum growth inhibitory concentration, P. aeruginosa” value in [9] was 3.13 ppm.
Consider `Clc1ccc([I+]c2ccccc2)cc1` [Compound 4 (Table 1)], for which the figures for the MIC in data set [4], in data set [5] and in [6] were 10 µg/mL, over 100 µg/mL and over 10 µg/mL, respectively.
Turning to `Clc1ccc([I+]c2ccc(Cl)cc2Cl)c(Cl)c1` [bis(2,4-dichlorophenyl)iodonium chloride, bis(2,4-dichlorophenyl)iodoniumchloride, reference compound], the killing at 10 ppm in data set [2] (setting [12]) and in data set [3] (setting [13]) was 0% each time.
For `c1ccc2c(c1)[I+]c1ccccc1-2` [Compound 13 (Table 2)], the “Oral LD50 (mice)” value in data set [7] is 8.75 ± 0.57 mg/kg.
On to `Clc1cccc2c1-c1c(Cl)cccc1[I+]2` [Compound 14 (Table 2)], for which the “Oral LD50 (mice)” value in [7] was 8 to 10 mg/kg.
Molecule `c1ccc([I+]c2ccccc2)cc1` [Compound 1 (Table 2)] came in with a 50% lethal dose (LD50) in data set [1] of 56.2 mg/kg.
On the same count and under the same terms, the same measure for `Cc1ccc(C)c([I+]c2cccs2)c1` [Compound 9 (Table 2)]: 3000 mg/kg.
Regarding `c1ccc2c(c1)[I+]c1ccccc1-2` [Compound 14 (Table 1)], the “Minimum growth inhibitory concentration, S. aureus” value in data set [8] is listed as 5 ppm. In [9], the “Minimum growth inhibitory concentration, P. aeruginosa” value was 5 ppm.
For the molecule `Clc1ccc([I+]c2cccs2)cc1` [Compound 6 (Table 1)], the MIC in data set [4], in [5] and in [6] was 1 µg/mL each time.
On to `c1csc([I+]c2cccs2)c1` [Compound 3 (Table 1)], for which the MIC in data set [4] was determined as 0.5 µg/mL; in data set [5], 5 µg/mL; in data set [6], 0.5 µg/mL.

By LD50 is commonly meant the dose at which mortality reaches 50%. Read a high LD50 as lower toxicity.
